One experiment has as its target c-Kit kinase (Homo sapiens, UniProt P10721). Description: c-Kit kinase biochemical activity assay (AlphaScreen, biotin-(E4Y)10 phosphorylation). The note with it: 100 μM ATP; read-out: Biochemical Inhibition IC50 Kit. As for the experimental part: Assays for biochemical and cell based activity are known in the art, for example, U.S. Patent Application Publication Number 2009/0076046, the disclosure of which is hereby incorporated by reference as it relates to such assays. For example, in one assay the biochemical activity IC50 values are determined with respect to inhibition of c-Kit kinase activity, where inhibition of phosphorylation of a peptide substrate is measured as a function of compound concentration. Compounds to be tested are dissolved in DMSO to a concentration of 20 mM. These are diluted 30 μL into 120 μL of DMSO (4 mM) and 1 μL is added to an assay plate. These are then serially diluted […] (50 μL to 100 μL DMSO) for a total of 8 points. Plates are prepared such that each kinase reaction is 20 μL in 1× kinase buffer (25 mM HEPES, pH 7.5, 2 mM MgCl2, 2 mM MnCl2, 0.01% Tween-20, 1 mM DTT, 0.01% BSA), 5% DMSO and 100 μM ATP. Substrate is 30 nM biotin-(E4Y) 10 (Millipore). C-kit kinase (obtained from Millipore (#14-559) or is prepared as described in U.S. Patent Application Publication Number 2009/0076046, the disclosure of which is hereby incorporated by reference as it relates to this assay) is at 0.75 ng per sample. After incubation of the kinase reaction for 1 hour at room temperature, 5 μL of donor beads (Streptavidin coated beads (Perkin Elmer Life Science) final concentration 10 μg/mL) in stop buffer (25 mM Hepes pH 7.5, 100 mM EDTA, 0.01% BSA) is added, the sample is mixed and incubated for 20 minutes at room temperature before adding 5 μL of acceptor beads (PY20 coated beads (Perkin Elmer Life Science) final concentration 10 μg/mL) in stop buffer. The samples are incubated for 60 minutes at room temperature and the signal per well is read on Envision reader. Phosphorylated substrate results in binding of the PY20 antibody and association of the donor and acceptor beads such that signal correlates with kinase activity. The signal vs. compound concentration is used to determine the IC50.

The next experiment concerns the target CYP3A4(BQ) (Homo sapiens, UniProt P08684). Put plainly: CYP3A4(BQ) inhibition. It is filed as in vitro ADME. Conditions: CYP3A4, substrate BQ; read-out: Cyp IC50 3A4(BQ). The method, then: CYP (Cytochrome P450) enzymes are the major drug metabolizing enzymes present in the liver. The inhibition of CYP enzyme activity (IC50) for each of CYP1A2, CYP2C19, CYP2C9, CYP2D6, CYP3A4(BFC) and CYP3A4(BQ) is determined for compounds, where inhibition of metabolism of a known substrate leads to a decrease in the fluorescence of the metabolized product. The fluorescence of the product is monitored as a function of compound concentration. Compounds are dissolved in DMSO to a concentration of 100 mM. These are diluted 1 μL into 82 μL of acetonitrile. An 11 μL aliquot of this solution is then added to 204 μL of cofactor mix (1.3% NADPH Regeneration system Solution A, 1.04% NADPH Regeneration system Solution B from BD Biosciences, 5% acetonitrile and 0.05% DMSO). These are then serially diluted 1:1 (160 μL to 160 μL co-factor mix) for a total of 10 points. A 10 μL aliquot of this final mixture is dispensed into 384 well assay plates and incubated for 10 minutes at 37° C. […] Assay plates are incubated at 37° C. (CYP1A2-15 min; CYP2C9-45 min; CYP2C19, 2D6 and 3A4-30 min) and read in a Tecan Safire 2 plate reader (CYP1A2, 2C19 and 3A4 409 ex/460 em; CYP2C9 and 2D6 409 ex/530 em). The signal versus compound concentration is used to determine the IC50. The enzymes and substrates for this assay are obtained from BD Biosciences.

Sequence of c-Kit kinase (P10721 26-976): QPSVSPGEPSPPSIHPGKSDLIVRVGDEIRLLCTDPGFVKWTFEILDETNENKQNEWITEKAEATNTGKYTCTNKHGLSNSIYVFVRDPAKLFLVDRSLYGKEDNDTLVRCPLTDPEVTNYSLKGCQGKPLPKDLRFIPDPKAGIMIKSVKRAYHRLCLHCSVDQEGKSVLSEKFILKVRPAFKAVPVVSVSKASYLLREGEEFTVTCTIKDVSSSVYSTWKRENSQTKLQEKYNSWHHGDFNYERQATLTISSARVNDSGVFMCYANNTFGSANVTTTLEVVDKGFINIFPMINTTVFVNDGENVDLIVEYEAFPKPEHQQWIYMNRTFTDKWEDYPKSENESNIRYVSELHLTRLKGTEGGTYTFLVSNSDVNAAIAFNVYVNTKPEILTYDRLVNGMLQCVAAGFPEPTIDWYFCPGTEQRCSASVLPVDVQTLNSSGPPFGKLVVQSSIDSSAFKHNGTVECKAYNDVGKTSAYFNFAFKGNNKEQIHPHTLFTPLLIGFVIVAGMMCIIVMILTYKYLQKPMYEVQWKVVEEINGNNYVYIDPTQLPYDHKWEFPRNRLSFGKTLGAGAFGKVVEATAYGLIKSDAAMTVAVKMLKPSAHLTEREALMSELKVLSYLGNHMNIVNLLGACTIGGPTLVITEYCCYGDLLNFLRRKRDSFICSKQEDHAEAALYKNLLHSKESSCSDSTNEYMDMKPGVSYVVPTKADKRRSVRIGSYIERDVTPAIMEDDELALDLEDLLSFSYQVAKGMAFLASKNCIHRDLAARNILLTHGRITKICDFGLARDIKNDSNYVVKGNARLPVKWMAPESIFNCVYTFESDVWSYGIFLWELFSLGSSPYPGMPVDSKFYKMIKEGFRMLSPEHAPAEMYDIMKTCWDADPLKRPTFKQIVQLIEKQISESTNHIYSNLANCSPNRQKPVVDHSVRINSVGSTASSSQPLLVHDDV
Sequence of CYP3A4(BQ) (P08684 whole entry): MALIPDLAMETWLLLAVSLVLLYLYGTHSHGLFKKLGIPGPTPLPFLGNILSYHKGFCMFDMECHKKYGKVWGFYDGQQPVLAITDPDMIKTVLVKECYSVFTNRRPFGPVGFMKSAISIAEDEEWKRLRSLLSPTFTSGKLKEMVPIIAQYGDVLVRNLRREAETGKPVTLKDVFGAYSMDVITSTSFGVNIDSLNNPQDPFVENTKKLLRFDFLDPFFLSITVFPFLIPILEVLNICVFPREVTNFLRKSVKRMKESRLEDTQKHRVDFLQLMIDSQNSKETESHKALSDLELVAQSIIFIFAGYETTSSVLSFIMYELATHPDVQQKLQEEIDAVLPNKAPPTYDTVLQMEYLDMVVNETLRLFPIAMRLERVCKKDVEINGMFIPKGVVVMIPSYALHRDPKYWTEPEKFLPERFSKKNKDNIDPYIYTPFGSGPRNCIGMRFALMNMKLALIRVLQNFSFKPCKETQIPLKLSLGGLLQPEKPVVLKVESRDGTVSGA

`Cc1cnc2[nH]cc(Cc3cnc(Nc4ccc(F)cc4)nc3)c2c1` [Compound P-3010, (4-Fluoro-phenyl)-[5-(5-methyl-1H-pyrrolo[2,3-b]pyridin-3-ylmethyl)-pyrimidin-2-yl]-amine]: the half-maximal inhibitory concentration (IC50) is less than 100 nM on c-Kit kinase and more than 10 µM at CYP3A4(BQ).

In the case of `Clc1ccc(Nc2ncc(Cc3c[nH]c4ncc(Cl)cc34)cn2)cc1` [Compound P-3011, (4-Chloro-phenyl)-[5-(5-chloro-1H-pyrrolo[2,3-b]pyridin-3-ylmethyl)-pyrimidin-2-yl]-amine], the IC50 on c-Kit kinase was less than 10 nM; on CYP3A4(BQ), more than 10 µM.

For the compound `Fc1ccc(Nc2ncc(Cc3c[nH]c4ncc(Cl)cc34)cn2)cc1` [Compound P-3012, [5-(5-Chloro-1H-pyrrolo[2,3-b]pyridin-3-ylmethyl)-pyrimidin-2-yl]-(4-fluoro-phenyl)-amine], the IC50 was less than 10 nM on c-Kit kinase and more than 10 µM at CYP3A4(BQ).

On to `Fc1nc(NC2CCC(F)(F)CC2)ccc1Cc1c[nH]c2ncc(Cl)cc12` [Compound P-3013, [5-(5-Chloro-1H-pyrrolo[2,3-b]pyridin-3-ylmethyl)-6-fluoro-pyridin-2-yl]-(4,4-difluoro-cyclohexyl)-amine], for which the IC50 at c-Kit kinase is less than 1000 nM; on CYP3A4(BQ), more than 10 µM.

As to `Fc1ccccc1Nc1ncc(Cc2c[nH]c3ncc(Cl)cc23)cn1` [Compound P-3014, [5-(5-Chloro-1H-pyrrolo[2,3-b]pyridin-3-ylmethyl)-pyrimidin-2-yl]-(2-fluoro-phenyl)-amine], the IC50 on c-Kit kinase was less than 100 nM.

`Clc1cnc2[nH]cc(Cc3cnc(Nc4ccccc4Cl)nc3)c2c1` [Compound P-3015, (2-Chloro-phenyl)-[5-(5-chloro-1H-pyrrolo[2,3-b]pyridin-3-ylmethyl)-pyrimidin-2-yl]-amine]: the IC50 at c-Kit kinase was less than 1000 nM.

Regarding `COc1ccc(Nc2ccc(C(=O)c3c[nH]c4ncnc(NC(C)(C)C)c34)c(F)n2)cn1` [Compound P-4055, [4-(tert-butylamino)-7H-pyrrolo[2,3-d]pyrimidin-5-yl]-[2-fluoro-6-[(6-methoxy-3-pyridyl)amino]-3-pyridyl]methanone], the values for the IC50 on c-Kit kinase and at CYP3A4(BQ) were less than 1000 nM and more than 10 µM, respectively.

For `COc1ccc(Nc2ccc(C(=O)c3c[nH]c4ncnc(NC5CCC(F)(F)CC5)c34)c(F)n2)cn1` [Compound P-4056, [4-[(4,4-difluorocyclohexyl)amino]-7H-pyrrolo[2,3-d]pyrimidin-5-yl]-[2-fluoro-6-[(6-methoxy-3-pyridyl)amino]-3-pyridyl]methanone], the half-inhibitory concentration (IC50) at c-Kit kinase is less than 100 nM; at CYP3A4(BQ), more than 10 µM.

Turning to `O=C(c1ccc(NC2CCC(F)(F)CC2)nc1Cl)c1c[nH]c2ncnc(NCC(F)(F)F)c12` [Compound P-4057, [2-chloro-6-[(4,4-difluorocyclohexyl)amino]-3-pyridyl]-[4-(2,2,2-trifluoroethylamino)-7H-pyrrolo[2,3-d]pyrimidin-5-yl]methanone], the IC50 on c-Kit kinase was more than 1000 nM; at CYP3A4(BQ), more than 10 µM.

For `CNc1ncnc2[nH]cc(C(=O)c3ccc(NC4CCC(F)(F)CC4)nc3Cl)c12` [Compound P-4058, [2-chloro-6-[(4,4-difluorocyclohexyl)amino]-3-pyridyl]-[4-(methylamino)-7H-pyrrolo[2,3-d]pyrimidin-5-yl]methanone], the figures for the IC50 at c-Kit kinase and at CYP3A4(BQ) were more than 1000 nM and more than 10 µM, respectively.

For the compound `O=C(c1ccc(NC2CCC(F)(F)CC2)nc1Cl)c1c[nH]c2ncnc(NC3CC3)c12` [Compound P-4059, [2-chloro-6-[(4,4-difluorocyclohexyl)amino]-3-pyridyl]-[4-(cyclopropylamino)-7H-pyrrolo[2,3-d]pyrimidin-5-yl]methanone], the figures for the IC50 at c-Kit kinase and at CYP3A4(BQ) were less than 1000 nM and more than 10 µM, respectively.

Consider `CCNc1ncnc2[nH]cc(C(=O)c3ccc(Nc4ccc(C5CC5)nc4)nc3F)c12` [Compound P-4060, [6-[(6-cyclopropyl-3-pyridyl)amino]-2-fluoro-3-pyridyl]-[4-(ethylamino)-7H-pyrrolo[2,3-d]pyrimidin-5-yl]methanone], for which the IC50 on c-Kit kinase was less than 100 nM; at CYP3A4(BQ), more than 10 µM.

As to `O=C(c1ccc(NC2CCC(F)(F)CC2)nc1F)c1c[nH]c2ncnc(NCC(F)(F)F)c12` [Compound P-4061, [6-[(4,4-difluorocyclohexyl)amino]-2-fluoro-3-pyridyl]-[4-(2,2,2-trifluoroethylamino)-7H-pyrrolo[2,3-d]pyrimidin-5-yl]methanone], the IC50 is more than 1000 nM on c-Kit kinase and more than 10 µM on CYP3A4(BQ).

As for `O=C(c1ccc(NC2CCC(F)(F)CC2)nc1F)c1c[nH]c2ncnc(NC3CC3)c12` [Compound P-4062, [4-(cyclopropylamino)-7H-pyrrolo[2,3-d]pyrimidin-5-yl]-[6-[(4,4-difluorocyclohexyl)amino]-2-fluoro-3-pyridyl]methanone], the IC50 on c-Kit kinase was less than 100 nM; at CYP3A4(BQ), more than 10 µM.

`CNc1ncnc2[nH]cc(C(=O)c3ccc(NC4CCC(F)(F)CC4)nc3F)c12` [Compound P-4063, [6-[(4,4-difluorocyclohexyl)amino]-2-fluoro-3-pyridyl]-[4-(methylamino)-7H-pyrrolo[2,3-d]pyrimidin-5-yl]methanone]: the IC50 is less than 1000 nM at c-Kit kinase and more than 10 µM on CYP3A4(BQ).

`CCc1ccc(Nc2ccc(C(=O)c3c[nH]c4ncnc(NCC(C)(C)O)c34)c(F)n2)cn1` [Compound P-4064, [6-[(6-ethyl-3-pyridyl)amino]-2-fluoro-3-pyridyl]-[4-[(2-hydroxy-2-methyl-propyl)amino]-7H-pyrrolo[2,3-d]pyrimidin-5-yl]methanone]: the IC50 on c-Kit kinase is less than 100 nM; at CYP3A4(BQ) it was more than 10 µM.

For `CCc1ccc(Nc2ccc(C(=O)c3c[nH]c4ncnc(N)c34)c(F)n2)cn1` [Compound P-4065, (4-amino-7H-pyrrolo[2,3-d]pyrimidin-5-yl)-[6-[(6-ethyl-3-pyridyl)amino]-2-fluoro-3-pyridyl]methanone], the IC50 is less than 100 nM at c-Kit kinase and more than 10 µM on CYP3A4(BQ).

`COc1ccc(Nc2ccc(C(=O)c3c[nH]c4ncnc(NC(C)C)c34)c(F)n2)cn1` [Compound P-4066, [2-fluoro-6-[(6-methoxy-3-pyridyl)amino]-3-pyridyl]-[4-(isopropylamino)-7H-pyrrolo[2,3-d]pyrimidin-5-yl]methanone]: the concentration for half-maximal inhibition (IC50) is less than 100 nM on c-Kit kinase and 5 to 10 µM on CYP3A4(BQ).

Take `COc1ccc(Nc2ccc(C(=O)c3c[nH]c4ncnc(NCC5CC5)c34)c(F)n2)cn1` [Compound P-4067, [4-(cyclopropylmethylamino)-7H-pyrrolo[2,3-d]pyrimidin-5-yl]-[2-fluoro-6-[(6-methoxy-3-pyridyl)amino]-3-pyridyl]methanone]: the IC50 was less than 1000 nM at c-Kit kinase and more than 10 µM at CYP3A4(BQ).

For `CCCNc1ncnc2[nH]cc(C(=O)c3ccc(Nc4ccc(OC)nc4)nc3F)c12` [Compound P-4068, [2-fluoro-6-[(6-methoxy-3-pyridyl)amino]-3-pyridyl]-[4-(propylamino)-7H-pyrrolo[2,3-d]pyrimidin-5-yl]methanone], the half-inhibitory concentration (IC50) is less than 100 nM on c-Kit kinase and more than 10 µM at CYP3A4(BQ).

Turning to `CNc1ncnc2[nH]cc(C(=O)c3ccc(Nc4ccc(OC)nc4)nc3OC)c12` [Compound P-4085, [2-methoxy-6-[(6-methoxy-3-pyridyl)amino]-3-pyridyl]-[4-(methylamino)-7H-pyrrolo[2,3-d]pyrimidin-5-yl]methanone], on c-Kit kinase, the IC50 was less than 1000 nM.

For `CCc1ccc(Nc2ccc(C(=O)c3c[nH]c4ncnc(Nc5ccc(C)nc5)c34)c(F)n2)cn1` [Compound P-4086, [6-[(6-ethyl-3-pyridyl)amino]-2-fluoro-3-pyridyl]-[4-[(6-methyl-3-pyridyl)amino]-7H-pyrrolo[2,3-d]pyrimidin-5-yl]methanone], at c-Kit kinase, the IC50 is less than 1000 nM.

(Values after patent publication US8901118B2, “Compounds and methods for kinase modulation, and indications therefor” (Plexxikon Inc., priority 2010, dated 2014).)
